Assay results published in ChEMBL document CHEMBL1137396, “Discovery of (1R,5S)-N-[3-amino-1-(cyclobutylmethyl)-2,3-dioxopropyl]- 3-[2(S)-[[[(1,1-dimethylethyl)amino]carbonyl]amino]-3,3-dimethyl-1-oxobutyl]- 6,6-dimethyl-3-azabicyclo[3.1.0]hexan-2(S)-carboxamide (SCH 503034), a selective, potent, orally bioavailable hepatitis C virus NS3 protease …” (J Med Chem, 2006).

How the values were obtained:
[1] = AUC in rat at 10 mg/kg, po; type: ADME, organism-based; design: dose 10 mg/kg, route oral; conditions: plasma
Huh-5-2 = experiment: Cytotoxicity against hepatoma cell line containing HCV replicon measured as change in GAPDH RNA level; type: functional, Homo sapiens
[2] = Bioavailability in rat at 10 mg/kg, po; type: ADME, organism-based; conditions: in vivo
NS3 = NS3 (Hepatitis C virus, UniProt A3EZJ3); experiment: Binding affinity at HCV NS3 protease; design: species or system Hepatitis C virus subtype 1b
Sequence of NS3 (A3EZJ3 whole entry): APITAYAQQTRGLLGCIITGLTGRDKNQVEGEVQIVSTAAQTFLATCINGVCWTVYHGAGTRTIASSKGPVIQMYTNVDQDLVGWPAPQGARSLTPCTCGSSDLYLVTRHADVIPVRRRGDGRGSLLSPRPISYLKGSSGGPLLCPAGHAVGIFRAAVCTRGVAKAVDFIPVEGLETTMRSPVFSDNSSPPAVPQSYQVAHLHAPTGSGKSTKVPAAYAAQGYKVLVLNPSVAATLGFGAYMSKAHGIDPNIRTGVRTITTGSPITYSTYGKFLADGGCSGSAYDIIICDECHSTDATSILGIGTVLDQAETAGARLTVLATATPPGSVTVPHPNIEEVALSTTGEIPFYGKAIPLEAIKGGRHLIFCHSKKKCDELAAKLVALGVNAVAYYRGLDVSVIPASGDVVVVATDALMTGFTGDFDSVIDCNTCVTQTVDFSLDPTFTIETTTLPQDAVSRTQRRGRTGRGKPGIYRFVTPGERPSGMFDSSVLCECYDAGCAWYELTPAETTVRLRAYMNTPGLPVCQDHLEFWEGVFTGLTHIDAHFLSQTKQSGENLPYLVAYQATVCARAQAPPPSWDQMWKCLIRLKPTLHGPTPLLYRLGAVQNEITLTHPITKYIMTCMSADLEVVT

[3] = Selectivity for human neutrophil elastase (HNE) over HCV NS3 protease
Hepatocyte = experiment: Inhibition of HCV replication in hepatocytes measured by cellular replicon assay; type: functional; conditions: Hepatitis C virus
[4] = AUC in monkey at 3 mg/kg, po; conditions: rhesus monkey, plasma
[5] = Bioavailability in monkey at 3 mg/kg, po; conditions: rhesus monkey, in vivo
[6] = Bioavailability in dog at 2 mg/kg, po; type: ADME, organism-based, Canis lupus familiaris; conditions: in vivo
[7] = AUC in dog at 2 mg/kg, po; type: ADME, organism-based, Canis lupus familiaris; design: dose 2 mg/kg, route oral; conditions: plasma
[8] = AUC in monkey at 2 mg/kg, po; conditions: rhesus monkey, plasma
[9] = Bioavailability in monkey at 2 mg/kg, po; conditions: rhesus monkey, in vivo
[10] = AUC in dog at 3 mg/kg, po; type: ADME, organism-based, Canis lupus familiaris; design: dose 3 mg/kg, route oral; conditions: plasma
[11] = Bioavailability in dog at 3 mg/kg, po; type: ADME, organism-based, Canis lupus familiaris; conditions: in vivo
[12] = Bioavailability in mouse; type: ADME, organism-based; conditions: in vivo
[13] = Ratio of drug level in liver against plasma in rat; type: ADME, organism-based

AUC [1]	bioavailability [2]	Ki (NS3)	Selectivity ratio [3]	bioavailability [6]	AUC [7]	AUC [8]	bioavailability [9]	Structure (SMILES)	Activity (Huh-5-2)	EC90 (Hepatocyte)	AUC [4]	bioavailability [5]	AUC [10]	bioavailability [11]	bioavailability [12]	Kp [13]
1500 nM·h	28%	0.008 µM	138					CC(C)(C)OC(=O)N[C@H](C(=O)N1C[C@H]2[C@@H]([C@H]1C(=O)NC(CC1CCC1)C(=O)C(N)=O)C2(C)C)C1CCCCC1 (stereo not given in full)	>5 µM	0.7 µM	110 nM·h	1%				
1000 nM·h	16%	0.013 µM	369	36%	1600 nM·h	50 nM·h	2%	CC(C)(C)NC(=O)N[C@H](C(=O)N1C[C@H]2[C@@H]([C@H]1C(=O)NC(CC1CC1)C(=O)C(N)=O)C2(C)C)C(C)(C)C (stereo not given in full)	>5 µM	0.4 µM						

Structure (SMILES)	AUC [1]	bioavailability [2]	Ki (NS3)	Selectivity ratio [3]	bioavailability [6]	AUC [7]	AUC [8]	bioavailability [9]	Activity (Huh-5-2)	EC90 (Hepatocyte)	AUC [4]	bioavailability [5]	AUC [10]	bioavailability [11]	bioavailability [12]	Kp [13]
CC(C)(C)NC(=O)N[C@H](C(=O)N1C[C@H]2[C@@H]([C@H]1C(=O)NC(CC1CCC1)C(=O)C(N)=O)C2(C)C)C(C)(C)C (stereo not given in full) [BOCEPREVIR]	1520 nM·h	26%	0.014 µM	2200					>5 µM	0.35 µM	120 nM·h	4%	3080 nM·h	30%	34%	30
